Measured values reported in patent US20150376196A1, “4-SUBSTITUTED PYRROLO- AND PYRAZOLO-DIAZEPINES” (BAYER PHARMA AKTIENGESELLSCHAFT, priority 2013, published 2015).
Read-outs that look alike come from different tables or passages of the source.

What was measured:
BRD4 (BD1) = biological target: T1, BRD4 (BD1) (Homo sapiens, UniProt O60885); assay: Binding assay BRD4/acetylated peptide H4 (TR-FRET protein-protein interaction assay)
T1 construct: amino acids 67-152, longer constructs also being possible, preferably amino acids 44-168; made in house; host or cells: E. coli
Description: To assess the BRD4 binding strength of the substances described in this application, the ability thereof to inhibit the interaction between BRD4 (BD1) and acetylated histone H4 in a dose-dependent manner was quantified.
For this purpose, a time-resolved fluorescence resonance energy transfer (TR-FRET) assay was used, which measures the binding between N-terminally His6-tagged BRD4 (BD1) (amino acids 67-152, longer constructs also being possible, preferably amino acids 44-168) and a synthetic acetylated histone H4 (Ac-H4) peptide with sequence GRGK(Ac)GGK(Ac)GLGK(Ac)GGAK(Ac)RHGSGSK-biotin. The recombinant BRD4 protein produced in-house according to Filippakopoulos et al., Nature, 2010, 468:1119-1123 was expressed in E. coli and purified by means of (Ni-NTA) affinity and (Sephadex G-75) size exclusion chromatography. The Ac-H4 peptide can be purchased, for example, from Biosyntan (Berlin, Germany).
In the assay, typically 11 different concentrations of each substance (0.1 nM, 0.33 nM, 1.1 nM, 3.8 nM, 13 nM, 44 nM, 0.15 μM, 0.51 μM, 1.7 μM, 5.9 μM and 20 μM) were analysed as duplicates on the same microtitre plate. For this purpose, 100-fold concentrated solutions in DMSO were prepared by serial dilutions (1:3.4) of a 2 mM stock solution into a clear, 384-well microtitre plate (Greiner Bio-One, Frickenhausen, Germany). From this, 50 nl were transferred into a black test plate (Greiner Bio-One, Frickenhausen, Germany). The test was started by the addition of 2 μl of a 2.5-fold concentrated BRD4 solution (final concentration typically 10 nM in the 5 μl of reaction volume) in aqueous assay buffer [50 mM HEPES pH 7.5, 50 mM sodium chloride (NaCl), 0.25 mM CHAPS and 0.05% serum albumin (BSA)] to the substances in the test plate. This was followed by a 10-minute incubation step at 22° C. for the pre-equilibration of putative complexes between BRD4 and the substances.
The mixture was then incubated in the dark at 22° C. for one hour and then at 4° C. for at least 3 hours and for no longer than overnight. The formation of BRD4/Ac-H4 complexes was determined by the measurement of the resonance energy transfer from the streptavidin-Eu cryptate to the anti-6His-XL665 antibody present in the reaction. For this purpose, the fluorescence emission was measured at 620 nm and 665 nm after excitation at 330-350 nm in a TR-FRET measuring instrument, for example a Rubystar or Pherastar (both from BMG Lab Technologies, Offenburg, Germany) or a Viewlux (Perkin-Elmer). The ratio of the emissions at 665 nm and at 622 nm was taken as an indicator of the amount of BRD4/Ac-H4 complexes formed.
The data (ratios) obtained were normalized, with 0% inhibition corresponding to the mean from the measurements for a set of controls (typically 32 data points) in which all the reagents were present. In these, in place of test substances, 50 nl of DMSO (100%) were used Inhibition of 100% corresponded to the mean from the measurements for a set of controls (typically 32 data points) in which all the reagents except BRD4 were present. The IC50 was determined by regression analysis based on a 4-parameter equation (minimum, maximum, IC50, Hill; Y=max+(min−max)/(1+(X/IC50)^Hill)).

MOLM-13 cells = assay: Cell proliferation assay (alamarBlue), MOLM-13; type: cell-based; settings: Homo sapiens, Leukaemia, 96 hours, inhibition of cell proliferation
Description: (§1) In accordance with the invention, the ability of the substances to inhibit cell proliferation was determined Cell viability was determined by means of the alamarBlue® reagent (Invitrogen) in a Victor X3 Multilabel Reader (Perkin Elmer). The excitation wavelength was 530 nm and the emission wavelength […].
The MOLM-13 cells (DSMZ, ACC 554) were sown at a concentration of 4000 cells/well in 100 μl of growth medium (RPMI1640, 10% FCS) on 96-well microtitre plates.
(§2) The MDA-MB-231 cells (DSMZ, ACC 732) were sown at a concentration of 4000 cells/well in 100 μl of growth medium (DMEM/Ham's F12 medium, 10% FCS) on 96-well microtitre plates. After overnight incubation at 37° C., the fluorescence values (CI values) were determined. Then the plates were treated with various substance dilutions (1E-5 M, 3E-6 M, 1E-6 M, 3E-7 M, 1E-7 M, 3E-8 M, 1E-8 M) and incubated at 37° C. for 72 (MV-4-11, LOX-IMVI cells), 96 (MOLM-13, B16F10, […] cells), 120 (MOLP-8, KMS-12-PE cells) or 168 (LAPC-4 cells) hours. Subsequently, the fluorescence values were determined (CO values). For the data analysis, the CI values were subtracted from the CO values and the results were compared between cells which had been treated with various dilutions of the substance or only with buffer solution. The ICso values (substance concentration needed for 50% inhibition of cell proliferation) were calculated therefrom.
(§3) The substances were tested in the cell lines in Table 1, which represent the indications specified by way of example: […]

LAPC-4 cells = assay: Cell proliferation assay (alamarBlue), LAPC-4; type: cell-based; settings: Homo sapiens, LAPC4, Prostate, 1 nM methyltrienolone, 168 hours, inhibition of cell proliferation
Description: as §1
The LAPC-4 cells (ATCC, PTA-1441TM) were sown at a concentration of 4000 cells/well in 100 μl of growth medium (RPMI1640, 2 mM L-glutamine, 10% cFCS) on 96-well microtitre plates. One day later, the LAPC-4 cells were treated with 1 nM methyltrienolone and various substance dilutions.
as §2, §3

[1] = BRD4 (BD1) / acetylated histone H4 peptide, TR-FRET, read-out: IC50 (BRD4)

| Compound | IC50 (BRD4 (BD1); [1]) [nM] | IC50 (MOLM-13 cells) [nM] | IC50 (BRD4 (BD1)) [nM] | IC50 (LAPC-4 cells) [nM] |
| --- | --- | --- | --- | --- |
| Cc1nnc2n1-c1cn(C)nc1C(c1ccc(Cl)cc1)=NC2CC(=O)N1CC(F)C1 (stereo not drawn) [Example 17, 2-[6-(4-Chlorophenyl)-1,8-dimethyl-4,8-dihydropyrazolo[3,4-f][1,2,4]triazolo[4,3-a][1,4]diazepin-4-yl]-1-(3-fluoroazetidin-1-yl)ethanone] | 1140 |  |  |  |
| CCNC(=O)CC1N=C(c2ccc(Cl)cc2)c2nn(C)cc2-n2c(C)nnc21 (stereo not drawn) [Example 18, 2-[6-(4-Chlorophenol)-1,8-dimethyl-4,8-dihydropyrazolo[3,4-f][1,2,4]triazolo[4,3-a][1,4]diazepin-4-yl]-N-ethylacetamide] | 780 |  |  |  |
| Cc1c2c(cn1C)-n1c(C)nnc1C(Cc1nc(C(C)C)no1)N=C2c1ccc(Cl)cc1 (stereo not drawn) [Example 29, 6-(4-Chlorophenyl)-1,7,8-trimethyl-4-{[3-(propan-2-yl)-1,2,4-oxadiazol-5-yl]methyl}-4,8-dihydropyrrolo[3,4-f][1,2,4]triazolo[4,3-a][1,4]diazepine] | 30 | 80 |  |  |
| Cc1c2c(cn1C)-n1c(C)nnc1[C@H](CC(=O)OC(C)(C)C)N=C2c1ccccc1 [Example 4, (−)-2-(4S)-(1,7,8-Trimethyl-6-phenyl-4,8-dihydropyrrolo[3,4f][1,2,4]triazolo[4,3-a][1,4]diazepin-4-yl)acetic acid tert-butyl ester] |  |  | 310 |  |
| Cc1c2c(cn1C)-n1c(C)nnc1[C@H](CC(=O)N1CCOCC1)N=C2c1ccc(Cl)cc1 [Example 21] | 40 | 520 |  | 240 |
| CCNC(=O)C[C@@H]1N=C(c2ccc(Cl)cc2)c2c(cn(C)c2C)-n2c(C)nnc21 [Example 10, (−)-2-[(4S)-6-(4-Chlorophenyl)-1,7,8-trimethyl-4,8-dihydropyrrolo[3,4f][1,2,4]triazolo[4,3-a][1,4]diazepin-4-yl]-N-ethylacetamide] | 170 | 450 |  |  |
| Cc1c2c(cn1C)-n1c(C)nnc1[C@H](CC(=O)N1CCOCC1)N=C2c1ccccc1 [Example 19, 1-(Morpholin-4-yl)-2-[(4S)-1,7,8-trimethyl-6-phenyl-4,8-dihydropyrrolo[3,4f][1,2,4]triazolo[4,3-a][1,4]diazepin-4-yl]ethanone] | 240 | 1240 |  | 700 |
| Cc1noc(CC2N=C(c3ccc(Cl)cc3)c3c(cn(C)c3C)-n3c(C)nnc32)n1 (stereo not drawn) [Example 25, 6-(4-Chlorophenyl)-1,7,8-trimethyl-4-[(3-methyl-1,2,4-oxadiazol-5-yl)methyl]-4,8-dihydropyrrolo[3,4-f][1,2,4]triazolo[4,3-a][1,4]diazepine] | 90 | 130 |  | 80 |
| Cc1c2c(cn1C)-n1c(C)nnc1[C@H](CC(=O)N1CC(Oc3ccccc3)C1)N=C2c1ccc(Cl)cc1 [Example 20, (−)-2-[(4S)-6-(4-Chlorophenyl)-1,7,8-trimethyl-4,8-dihydropyrrolo[3,4f][1,2,4]triazolo[4,3-a][1,4]diazepin-4-yl]-1-(3-phenoxyazetidin-1-yl)ethanone] | 60 | 920 |  | 410 |
| Cc1nnc2n1-c1cn(C)nc1C(c1ccc(Cl)cc1)=NC2CC(=O)N1CCOCC1 (stereo not drawn) [Example 16, 2-[6-(4-Chlorophenyl)-1,8-dimethyl-4,8-dihydropyrazolo[3,4-f][1,2,4]triazolo[4,3-a][1,4]diazepin-4-yl]-1-(morpholin-4-yl)ethanone] | 700 | 4550 |  |  |
| CCc1noc(CC2N=C(c3ccc(Cl)cc3)c3c(cn(C)c3C)-n3c(C)nnc32)n1 (stereo not drawn) [Example 27, 6-(4-Chlorophenyl)-1,7,8-trimethyl-4-[(3-ethyl-1,2,4-oxadiazol-5-yl)methyl]-4,8-dihydropyrrolo[3,4-f][1,2,4]triazolo[4,3-a][1,4]diazepine] | 30 | 100 |  |  |
| Cc1c2c(cn1C)-n1c(C)nnc1[C@H](CC(=O)N1CCN3C(=O)CCC3C1)N=C2c1ccc(Cl)cc1 (single isomer, unassigned; (-)) [Example 23] | 50 | 880 |  | 470 |
| CC(=O)N1CC(NC(=O)C[C@@H]2N=C(c3ccc(Cl)cc3)c3c(cn(C)c3C)-n3c(C)nnc32)C1 [Example 9, N-(1-Acetylazetidin-3-yl)-2-(4S)-[6-(4-chlorophenyl)-1,7,8-trimethyl-4,8-dihydropyrrolo[3,4-f][1,2,4]triazolo[4,3-a][1,4]diazepin-4-yl]acetamide] | 110 | 610 |  | 550 |
| Cc1nnc2n1-c1cn(C)nc1C(c1ccc(Cl)cc1)=N[C@H]2CC(=O)N1CCS(=O)(=O)CC1 [Example 15, 2-[(4S)-6-(4-Chlorophenyl)-1,8-dimethyl-4,8-dihydropyrazolo[3,4f][1,2,4]triazolo[4,3-a][1,4]diazepin-4-yl]-1-(1,1-dioxidothiomorpholin-4-yl)ethanone] | 450 | 2980 |  |  |
| Cc1c2c(cn1C)-n1c(C)nnc1C(Cc1nc(C(C)(C)C)no1)N=C2c1ccc(Cl)cc1 (stereo not drawn) [Example 31, 4-[(3-tert-Butyl-1,2,4-oxadiazol-5-yl)methyl]-6-(4-chlorophenyl)-1,7,8-trimethyl-4,8-dihydropyrrolo[3,4-f][1,2,4]triazolo[4,3-a][1,4]diazepine] | 490 | 490 |  | 350 |
| Cc1c2c(cn1C)-n1c(C)nnc1[C@H](CC(=O)N1CCN(C(=O)OC(C)(C)C)CC1)N=C2c1ccc(Cl)cc1 [Example 22, (−)-4-{[(4S)-6-(4-Chlorophenyl)-1,7,8-trimethyl-4,8-dihydropyrrolo[3,4-f][1,2,4]triazolo[4,3-a][1,4]diazepin-4-yl]acetyl}piperazine-1-carboxylic acid tert-butyl ester] | 20 | 720 |  | 340 |
| Cc1c2c(cn1C)-n1c(C)nnc1C(Cc1nc(C3CC3)no1)N=C2c1ccc(Cl)cc1 (stereo not drawn) [Example 24, 6-(4-Chlorophenyl)-4-[(3-cyclopropyl-1,2,4-oxadiazol-5-yl)methyl]-1,7,8-trimethyl-4,8-dihydropyrrolo[3,4-f][1,2,4]triazolo[4,3-a][1,4]diazepine] | 50 | 80 |  |  |
